IC50 and EC50 data for nine compounds are collected here from patent publication US8415308B2, “1′-substituted-carba-nucleoside prodrugs for antiviral treatment” (Gilead Sciences, Inc., priority 2010, dated 2013).

Usually IC50 stands for the concentration at which inhibition is half-maximal. By EC50 is commonly meant the concentration that produces a half-maximal response.

The target in the first test is T1, HCV Δ21 NS5b polymerase (Hepatitis C virus genotype 1b, UniProt Q9WMX2).
T1 construct: 75 nM HCV Δ21 NS5b polymerase
The experiment in a line: HCV IC50 determination, NS5b polymerase assay. The format is biochemical.
Settings: not given
As for the experimental part: Assay Protocol: NS5b polymerase assay (40 μL) was assembled by adding 28 μL polymerase mixture (final concentration: 50 mM Tris-HCl at pH 7.5, 10 mM KCL, 5 mM MgCl2, 1 mM DTT, 10 mM EDTA, 4 ng/μL of RNA template, and 75 nM HCV Δ21 NS5b polymerase) to assay plates followed by 4 μL of compound dilution. The polymerase and compound were pre-incubated at 35° C. for 10 minute before the addition of 8 μL of nucleotide substrate mixture (33P-α-labeled competing nucleotide at KM and 0.5 mM of the remaining three nucleotides). The assay plates were covered and incubated at 35° C. for 90 min. Reactions were then filtered through 96-well DEAE-81 filter plates via vacuum. The filter plates were then washed under vacuum with multiple volumes of 0.125 M NaHPO4, water, and ethanol to remove unincorporated label. Plates were then counted on TopCount to assess the level of product synthesis over background controls. The IC50 value is determined using Prism fitting program.
Turning to `C[C@@]1(O)[C@H](O)[C@@H](COP(=O)(O)OP(=O)(O)OP(=O)(O)O)O[C@@]1(C#N)c1ccc2c(N)ncnn12` [Compound 7], the IC50 was < 1000 nM.

The subject of another test is Replicon cells. The experiment in a line: HCV EC50 determination in replicon cells (luciferase). The format is cell-based. Conditions: Hepatitis C virus, 72 h. As for the experimental part: Replicon cells were seeded in 96-well plates at a density of 8×10^3 cells per well in 100 μL of culture medium, excluding Geneticin. Compound was serially diluted in 100% DMSO and then added to the cells at a 1:200 dilution, achieving a final concentration of 0.5% DMSO and a total volume of 200 μL. Plates were incubated at 37° C. for 3 days, after which culture medium was removed and cells were lysed in lysis buffer provided by Promega's luciferase assay system. Following the manufacturer's instruction, 100 μL of luciferase substrate was added to the lysed cells and luciferase activity was measured in a TopCount luminometer.
The specific activity observed may vary according to and depending on the particular replicon tested, the active compound selected or whether there are present pharmaceutical carriers, as well as the type of formulation and mode of administration employed, and such expected variations or differences in the results are contemplated in accordance with practice of the present invention.
Background: Replicon systems follow genome replication, usually without infectious particles.
In turn, `CC(C)OC(=O)[C@H](C)NP(=O)(OC[C@H]1O[C@@](C#N)(c2ccc3c(N)ncnn23)[C@](C)(O)[C@@H]1O)Oc1ccccc1` (stereo partly drawn) [Compound 6] gave an EC50 of 480 to 1800 nM. Turning to `CC(C)OC(=O)[C@H](C)N[P@](=O)(OC[C@H]1O[C@@](C#N)(c2ccc3c(N)ncnn23)[C@](C)(O)[C@@H]1OC(=O)C(C)C)Oc1ccccc1` [Compound 8A], the EC50 was 96 to 360 nM. The same measure, in the same setting: the result for `CC(C)OC(=O)[C@H](C)N[P@@](=O)(OC[C@H]1O[C@@](C#N)(c2ccc3c(N)ncnn23)[C@](C)(O)[C@@H]1OC(=O)C(C)C)Oc1ccccc1` [Compound 8B] reads 460 to 1900 nM; that for `CC(C)OC(=O)[C@H](C)NP(=O)(OC[C@H]1O[C@@](C#N)(c2ccc3c(N)ncnn23)[C@](C)(O)[C@@H]1OC(=O)C(C)C)Oc1ccccc1` (stereo partly drawn) [Compound 8], 140 to 520 nM.

Staying with this test, now noted: Hepatitis C virus, 72 h; replicon cells, 3 days, luciferase activity; read-out: EC50.
Turning to `C[C@@]1(O)[C@H](O)[C@@H](CO)O[C@@]1(C#N)c1ccc2c(N)ncnn12` [Compound 5], the EC50 is > 89000 nM. Same read-out and setting: the result for `CC(C)OC(=O)[C@H](C)NP(=O)(N[C@@H](C)C(=O)OC(C)C)OC[C@H]1O[C@@](C#N)(c2ccc3c(N)ncnn23)[C@](C)(O)[C@@H]1O` [Compound 61] reads 51000 nM; that for `CC(C)OC(=O)[C@H](C)NP(=O)(N[C@@H](C)C(=O)OC(C)C)OC[C@H]1O[C@@](C#N)(c2ccc3c(N)ncnn23)[C@](C)(O)[C@@H]1OC(=O)C(C)C` [Compound 64], 5380 nM.

Take `CC(=O)O[C@@H]1[C@@H](COP(=O)(N[C@@H](C)C(=O)OC(C)C)N[C@@H](C)C(=O)OC(C)C)O[C@@](C#N)(c2ccc3c(N)ncnn23)[C@]1(C)O` [Compound 65]: the EC50 is 8400 nM.
